Measured values taken from ChEMBL document CHEMBL1201862, “PubChem BioAssay data set” (2004).
“And” between values parts separate entries of the source, which are not always exact repeats. Equal values may be shown once. The source made the active and inactive calls.

Experiments:
[1] = Luminescence Cell-Based Dose Retest to Confirm Inhibitors of Cancer Stem Cells. [Related pubchem assays (depositor defined):AID2717, AID2721]; type: functional; settings: Homo sapiens
P388/ADR = test: cells; type: functional; settings: Mus musculus
SN12K1 = test: cells; type: functional; settings: Homo sapiens
P388 = test: cells; type: functional; settings: Mus musculus
Cytochrome P450 3A4 = Cytochrome P450 3A4 (Homo sapiens, UniProt P08684);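 also: CYP3A4 tested as one member of a cytochrome P450 panel screen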
Cytochrome P450 2C9 = Cytochrome P450 2C9 (Homo sapiens, UniProt P11712)
[2] = Luminescence Cell-Based Dose Confirmation HTS to Identify Activators of 5'UTR Stem-Loop Driven Alpha-Synuclein mRNA Translation in H4 Neuroglioblastoma Cells. [Related pubchem assays: 1829 (Project Summary), 1814 (Primary HTS)]; type: functional
[3] = Luminescence Cell-Based Dose Response HTS to Identify Activators of Luciferase Translation or Activity in H4 […] Cells. [Related pubchem assays: 1829 (Project Summary), 1814 (Primary HTS)]; type: functional
H4 = test: Luminescence Cell-Based Dose Response HTS to Identify Activators of 5'UTR Stem-Loop Driven Prion Protein mRNA Translation in H4 Neuroglioblastoma Cells. [Related pubchem assays: 1829 (Project Summary), 1814 (Primary HTS)]; type: functional; settings: Homo sapiens
[4] = molecular target: T1, Corticotropin-releasing factor receptor 2/Corticotropin-releasing factor-binding protein (Homo sapiens, UniProt P24387+Q13324); test: Dose Response confirmation of uHTS hits for small molecule antagonists of the CRF-binding protein and CRF-R2 receptor complex.; type: functional; settings: read-out: IC50_Mean
T1 sequence (Q13324 whole entry): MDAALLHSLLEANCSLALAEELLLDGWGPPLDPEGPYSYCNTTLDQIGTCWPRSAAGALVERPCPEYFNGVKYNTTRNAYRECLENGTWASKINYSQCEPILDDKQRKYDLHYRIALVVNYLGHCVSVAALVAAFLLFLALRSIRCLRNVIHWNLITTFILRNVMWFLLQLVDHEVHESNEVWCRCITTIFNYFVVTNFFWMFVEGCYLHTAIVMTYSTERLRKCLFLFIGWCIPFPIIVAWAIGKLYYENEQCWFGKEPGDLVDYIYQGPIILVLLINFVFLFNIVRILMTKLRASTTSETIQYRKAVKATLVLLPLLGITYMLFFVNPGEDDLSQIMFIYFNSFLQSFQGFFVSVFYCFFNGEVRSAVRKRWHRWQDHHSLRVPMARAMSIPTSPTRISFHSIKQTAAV
T1 sequence (P24387 whole entry): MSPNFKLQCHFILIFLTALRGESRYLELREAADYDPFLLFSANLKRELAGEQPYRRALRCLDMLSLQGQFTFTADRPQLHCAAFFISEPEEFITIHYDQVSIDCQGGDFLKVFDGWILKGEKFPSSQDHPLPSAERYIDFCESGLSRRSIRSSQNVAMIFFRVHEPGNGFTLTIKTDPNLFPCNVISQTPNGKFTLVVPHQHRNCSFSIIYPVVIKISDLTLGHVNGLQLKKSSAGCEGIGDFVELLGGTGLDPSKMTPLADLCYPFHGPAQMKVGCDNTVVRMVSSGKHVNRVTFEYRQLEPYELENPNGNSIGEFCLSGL

[5] = molecular target: T1, Corticotropin-releasing factor receptor 2/Corticotropin-releasing factor-binding protein; test: activators of CRF receptor 2 with binding protein – uHTS hits, confirmation (AID 602473); type: functional; settings: read-out: EC50_Mean

Cytochrome P450 3A4, sequence (P08684 whole entry): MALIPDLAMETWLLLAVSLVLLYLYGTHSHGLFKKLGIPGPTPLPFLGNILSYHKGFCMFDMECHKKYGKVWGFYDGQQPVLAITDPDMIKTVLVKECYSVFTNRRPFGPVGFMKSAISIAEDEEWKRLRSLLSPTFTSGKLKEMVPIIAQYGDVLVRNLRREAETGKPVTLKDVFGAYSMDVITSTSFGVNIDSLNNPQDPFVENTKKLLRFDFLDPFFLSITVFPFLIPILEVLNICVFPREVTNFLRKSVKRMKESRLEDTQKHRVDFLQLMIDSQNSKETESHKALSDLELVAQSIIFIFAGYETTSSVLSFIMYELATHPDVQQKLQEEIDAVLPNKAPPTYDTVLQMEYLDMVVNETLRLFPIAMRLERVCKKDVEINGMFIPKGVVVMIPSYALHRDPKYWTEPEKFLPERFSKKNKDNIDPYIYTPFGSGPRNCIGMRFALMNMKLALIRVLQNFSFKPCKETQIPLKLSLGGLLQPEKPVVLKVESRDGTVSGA
Cytochrome P450 2C9, sequence (P11712 whole entry): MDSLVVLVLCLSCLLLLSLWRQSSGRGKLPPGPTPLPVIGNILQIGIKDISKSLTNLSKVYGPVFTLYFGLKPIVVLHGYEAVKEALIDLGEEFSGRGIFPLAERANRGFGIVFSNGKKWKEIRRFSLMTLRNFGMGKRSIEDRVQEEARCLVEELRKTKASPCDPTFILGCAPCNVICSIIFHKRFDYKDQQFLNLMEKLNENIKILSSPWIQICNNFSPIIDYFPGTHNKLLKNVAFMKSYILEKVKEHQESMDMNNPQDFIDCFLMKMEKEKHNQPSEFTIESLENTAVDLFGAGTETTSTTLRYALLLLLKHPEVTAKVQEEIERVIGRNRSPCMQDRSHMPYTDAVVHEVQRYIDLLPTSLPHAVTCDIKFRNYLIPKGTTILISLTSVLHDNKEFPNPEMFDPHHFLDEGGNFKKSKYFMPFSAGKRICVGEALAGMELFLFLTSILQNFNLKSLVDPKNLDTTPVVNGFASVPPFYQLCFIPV

In the case of C[C@H]1CN([C@@H](C)CO)C(=O)Cc2cc(NC(=O)CCC(F)(F)F)ccc2O[C@H]1CN(C)Cc1ccc(-c2ccccc2)cc1, the AC50 [1] is reported as 4.88 µM (active).
For CC(C)c1oc(=O)cc2c1C(O)C1OC(=O)C3(C)C(O)C4OC4C2(C)C13 (stereo not given) [NAGILACTONE], the GI50 (P388/ADR) was 2.52 µM (inactive), the GI50 (SN12K1) was 1.46 µM (inactive) and the GI50 (P388) was 0.365 µM (active).
For Nc1ncnc2c1nc(Cl)n2[C@@H]1O[C@@H]2COP(=O)(O)O[C@H]2[C@H]1O [TOCLADESINE], the GI50 (P388/ADR) was 4.53 µM (inactive), the GI50 (SN12K1) was 7.26 µM (inactive) and the GI50 (P388) was 36.7 µM (inactive).
In the case of CCn1c(=O)c(C(=O)O)c(Cl)c2cc3c(cc21)OCO3, the GI50 (P388/ADR) is reported as > 100 µM (inactive), the GI50 (SN12K1) is reported as > 100 µM (inactive) and the GI50 (P388) is reported as > 100 µM (inactive).
In the case of O=c1onc2cnc3ccccc3n12, the AC50 (Cytochrome P450 3A4) is reported as 31.6 µM (inconclusive) and the AC50 (Cytochrome P450 2C9) is reported as 39.8 µM (inconclusive).
With COc1ccc(/C=N/OCc2nc3c4c(ncn3n2)Oc2ccc3ccccc3c2C4c2ccccc2)cc1 (stereo not given) the AC50 (Cytochrome P450 3A4) was 39.8 µM (inconclusive) and the AC50 (Cytochrome P450 2C9) was 1.26 µM (inconclusive).
With COCC(=O)N1CCC[C@@]2(CCN(Cc3ccc(C#N)cc3)C2)C1 the AC50 (Cytochrome P450 3A4) was 12.6 µM (inconclusive).
With O=C1c2ccccc2C(O)(C(=O)O)C1(O)CC=C(Cl)Cl (stereo not given) the GI50 (P388/ADR) was > 70.3 µM (inactive), the GI50 (SN12K1) was > 125 µM (inactive) and the GI50 (P388) was > 125 µM (inactive).
For CS(=O)(=O)OCCCNCCCOS(C)(=O)=O, the GI50 (P388/ADR) was 392 µM (inactive), the GI50 (SN12K1) was 753 µM (inactive) and the GI50 (P388) was 418 µM (inactive).
For O=C(CN(c1ccc(Cl)cc1)S(=O)(=O)c1ccc(Cl)c([N+](=O)[O-])c1)NCCc1ccc(F)cc1, the AC50 [1] was 2.15 µM (active).
In the case of CCN1C(=O)[C@H]2[C@H]3[C@H](O)[C@H](O)C/C(=N/O[C@@H](C)c4cn([C@H](CO)Cc5ccccc5)nn4)[C@@H]3CC[C@@H]2C1=O, the AC50 (Cytochrome P450 3A4) is reported as 3.16 µM (inconclusive) and 5.01 µM (inconclusive).
With CN(CC(=O)Nc1ccc(Cl)c(Cl)c1)CC(=O)Nc1ccc2c(c1)OCO2 the AC50 [1] was 10.2 µM (active).
In the case of CC(=O)NC1=C(C#N)C(c2ccccc2)c2c(ccc3ccccc23)O1 (stereo not given), the AC50 [1] is reported as 0.733 µM (active).
In the case of Cn1cnnc1SCC(=O)n1c2ccccc2c2ccccc21, the AC50 (Cytochrome P450 3A4) is reported as 25.1 µM (inconclusive) and the AC50 (Cytochrome P450 2C9) is reported as 0.00562 µM (inconclusive).
For Cc1cc(/C=C(\C#N)C(=O)NCC2CCCO2)c(C)n1-c1ccc(Cl)cc1 (stereo not given), the EC50 [2] was 10 µM (active), the EC50 [3] was 30.1 µM (active) and the EC50 (H4) was 8.94 µM (active).
For O=C(O)C(Cc1cccs1)NC(=O)C(F)(F)F (stereo not given), the GI50 (P388/ADR) was > 100 µM (inactive), the GI50 (SN12K1) was > 100 µM (inactive) and the GI50 (P388) was > 57.9 µM (inactive).
In the case of O=c1c(-c2ccccc2)nc2cnc(N3CCOCC3)nc2n1-c1ccccc1, the AC50 (Cytochrome P450 3A4) is reported as 20 µM (inconclusive).
In the case of CCC(=O)Nc1ccc(NC(=O)c2oc3ccccc3c2C)cc1, the IC50 [4] is reported as > 47.1 µM (inactive) and the EC50 [5] is reported as > 53 µM (inactive).
With CCCCCCCCCCCCOCCCOP(=O)([O-])OCC[N+](C)(C)C the GI50 (P388/ADR) was > 100 µM (inactive), the GI50 (SN12K1) was > 100 µM (inactive) and the GI50 (P388) was 27.9 µM (inactive).
For COc1ccc2c(c1)[nH]c1c(=O)n(/N=C/C3C(C)C=C(C)CC3C)c(=O)[nH]c12 (stereo not given), the AC50 [1] was > 100 µM (inactive).
